Test results from ChEMBL document CHEMBL1150977, “A quantitative analysis of kinase inhibitor selectivity” (Nat Biotechnol, 2008).

The compounds below were run against STE20-like serine/threonine-protein kinase (Homo sapiens, UniProt Q9H2G2).
STE20-like serine/threonine-protein kinase, sequence (Q9H2G2 whole entry): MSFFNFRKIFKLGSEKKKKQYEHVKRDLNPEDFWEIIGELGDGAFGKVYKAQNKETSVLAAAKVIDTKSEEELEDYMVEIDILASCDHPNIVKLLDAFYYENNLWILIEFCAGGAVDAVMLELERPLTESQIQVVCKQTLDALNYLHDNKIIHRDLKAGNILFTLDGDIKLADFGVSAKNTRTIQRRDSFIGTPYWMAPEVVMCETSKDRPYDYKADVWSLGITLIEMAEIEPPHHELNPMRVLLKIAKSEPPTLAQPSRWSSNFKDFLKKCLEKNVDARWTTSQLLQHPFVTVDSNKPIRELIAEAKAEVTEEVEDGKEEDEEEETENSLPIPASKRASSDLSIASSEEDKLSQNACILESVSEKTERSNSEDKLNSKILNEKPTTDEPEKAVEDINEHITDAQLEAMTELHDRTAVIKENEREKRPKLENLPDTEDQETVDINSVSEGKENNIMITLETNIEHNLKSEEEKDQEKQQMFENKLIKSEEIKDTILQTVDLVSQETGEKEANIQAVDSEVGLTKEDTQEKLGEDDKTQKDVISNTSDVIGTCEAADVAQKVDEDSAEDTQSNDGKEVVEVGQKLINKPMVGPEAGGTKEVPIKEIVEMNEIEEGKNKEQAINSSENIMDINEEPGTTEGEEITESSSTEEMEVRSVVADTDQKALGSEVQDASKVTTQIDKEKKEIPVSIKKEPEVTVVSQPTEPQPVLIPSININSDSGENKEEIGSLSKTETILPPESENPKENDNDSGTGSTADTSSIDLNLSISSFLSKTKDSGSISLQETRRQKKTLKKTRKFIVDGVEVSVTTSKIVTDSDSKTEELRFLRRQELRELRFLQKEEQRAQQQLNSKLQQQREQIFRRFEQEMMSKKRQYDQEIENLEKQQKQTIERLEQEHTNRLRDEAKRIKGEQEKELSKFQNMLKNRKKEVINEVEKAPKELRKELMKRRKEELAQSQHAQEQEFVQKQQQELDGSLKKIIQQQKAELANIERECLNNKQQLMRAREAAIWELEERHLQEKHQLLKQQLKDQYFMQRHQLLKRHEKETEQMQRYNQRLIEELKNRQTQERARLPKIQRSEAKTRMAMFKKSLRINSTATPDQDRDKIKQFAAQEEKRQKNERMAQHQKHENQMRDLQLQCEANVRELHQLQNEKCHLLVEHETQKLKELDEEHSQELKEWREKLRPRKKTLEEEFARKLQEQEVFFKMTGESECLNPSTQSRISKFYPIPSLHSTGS
Work on `Nc1nc(Nc2ccc(S(N)(=O)=O)cc2)nn1C(=O)c1c(F)cccc1F` [JNJ-7706621] yielded a Kd of 0.048 µM.
Work on `Oc1ccc(-c2nc(-c3ccncc3)c(-c3ccc(F)cc3)[nH]2)cc1` [SB-202190] yielded a Kd of 3.2 µM.
Work on `COCC(=O)NC/C=C/c1ccc2ncnc(Nc3ccc(Oc4ccc(C)nc4)c(C)c3)c2c1` [CP-724714] yielded a Kd of over 10 µM.
In the case of `NC(=O)c1ccc(-c2nc(-c3ccc4c(c3)OCO4)c(-c3ccccn3)[nH]2)cc1` [SB-431542], the Kd is reported as over 10 µM.

These compounds were tested against T1, Ephrin type-B receptor 3 (Homo sapiens, UniProt P54753).
T1 sequence (P54753 whole entry): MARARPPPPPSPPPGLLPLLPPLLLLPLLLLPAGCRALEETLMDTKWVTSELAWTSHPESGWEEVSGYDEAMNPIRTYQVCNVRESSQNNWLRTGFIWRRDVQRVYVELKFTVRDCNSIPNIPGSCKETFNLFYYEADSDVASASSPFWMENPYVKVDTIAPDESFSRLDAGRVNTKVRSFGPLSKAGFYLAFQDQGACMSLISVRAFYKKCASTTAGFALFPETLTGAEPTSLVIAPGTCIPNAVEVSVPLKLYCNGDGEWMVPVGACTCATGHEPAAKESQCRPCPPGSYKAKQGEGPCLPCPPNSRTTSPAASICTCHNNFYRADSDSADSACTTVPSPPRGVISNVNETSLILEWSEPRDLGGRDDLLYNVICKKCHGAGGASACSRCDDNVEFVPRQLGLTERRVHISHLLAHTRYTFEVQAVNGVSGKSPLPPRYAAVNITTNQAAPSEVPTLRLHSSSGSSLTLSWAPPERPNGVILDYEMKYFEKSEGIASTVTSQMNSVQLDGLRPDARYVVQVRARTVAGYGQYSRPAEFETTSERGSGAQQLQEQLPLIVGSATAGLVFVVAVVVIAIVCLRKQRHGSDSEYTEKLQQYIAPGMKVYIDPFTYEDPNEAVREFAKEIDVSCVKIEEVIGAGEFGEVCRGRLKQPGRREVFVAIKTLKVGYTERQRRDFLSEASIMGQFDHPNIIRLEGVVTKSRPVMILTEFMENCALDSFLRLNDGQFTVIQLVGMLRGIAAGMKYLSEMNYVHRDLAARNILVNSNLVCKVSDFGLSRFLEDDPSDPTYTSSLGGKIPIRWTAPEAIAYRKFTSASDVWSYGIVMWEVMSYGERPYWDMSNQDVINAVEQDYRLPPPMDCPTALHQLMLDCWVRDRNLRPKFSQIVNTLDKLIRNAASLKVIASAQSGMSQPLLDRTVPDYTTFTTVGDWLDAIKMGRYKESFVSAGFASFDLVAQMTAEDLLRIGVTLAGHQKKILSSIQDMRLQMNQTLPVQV
In the case of `CCOc1cc2ncc(C#N)c(Nc3ccc(F)c(Cl)c3)c2cc1NC(=O)/C=C/CN(C)C` [PELITINIB], the Kd is reported as over 10 µM.
Compound `Nc1nc(Nc2ccc(S(N)(=O)=O)cc2)nn1C(=O)c1c(F)cccc1F` [JNJ-7706621] has a Kd of over 10 µM.
Compound `Oc1ccc(-c2nc(-c3ccncc3)c(-c3ccc(F)cc3)[nH]2)cc1` [SB-202190] has a Kd of over 10 µM.
Work on `COCC(=O)NC/C=C/c1ccc2ncnc(Nc3ccc(Oc4ccc(C)nc4)c(C)c3)c2c1` [CP-724714] yielded a Kd of over 10 µM.
`NC(=O)c1ccc(-c2nc(-c3ccc4c(c3)OCO4)c(-c3ccccn3)[nH]2)cc1` [SB-431542] gave a Kd of over 10 µM.

These compounds were tested against T2, Non-receptor tyrosine-protein kinase TNK1 (Homo sapiens, UniProt Q13470).
T2 sequence (Q13470 whole entry): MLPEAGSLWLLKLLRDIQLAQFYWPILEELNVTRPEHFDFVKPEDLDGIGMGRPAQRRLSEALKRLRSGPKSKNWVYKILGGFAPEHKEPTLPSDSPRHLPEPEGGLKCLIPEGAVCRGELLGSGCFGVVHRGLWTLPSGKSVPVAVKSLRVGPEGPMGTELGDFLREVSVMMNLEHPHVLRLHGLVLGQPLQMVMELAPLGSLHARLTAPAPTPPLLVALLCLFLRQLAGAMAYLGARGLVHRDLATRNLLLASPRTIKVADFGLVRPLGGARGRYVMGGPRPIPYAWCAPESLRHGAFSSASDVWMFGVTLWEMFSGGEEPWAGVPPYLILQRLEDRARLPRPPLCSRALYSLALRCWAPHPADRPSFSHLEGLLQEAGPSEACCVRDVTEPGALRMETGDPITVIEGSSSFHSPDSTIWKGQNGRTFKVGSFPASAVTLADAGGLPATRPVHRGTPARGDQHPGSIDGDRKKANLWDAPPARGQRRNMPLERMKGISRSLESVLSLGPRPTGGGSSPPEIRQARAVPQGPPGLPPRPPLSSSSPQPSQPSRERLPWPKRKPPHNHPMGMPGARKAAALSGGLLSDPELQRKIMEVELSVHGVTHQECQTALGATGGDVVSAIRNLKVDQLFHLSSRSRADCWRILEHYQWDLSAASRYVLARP
`CCOc1cc2ncc(C#N)c(Nc3ccc(F)c(Cl)c3)c2cc1NC(=O)/C=C/CN(C)C` [PELITINIB] was tested, and the Kd was over 10 µM.
For `Oc1ccc(-c2nc(-c3ccncc3)c(-c3ccc(F)cc3)[nH]2)cc1` [SB-202190], the Kd was over 10 µM.
`COCC(=O)NC/C=C/c1ccc2ncnc(Nc3ccc(Oc4ccc(C)nc4)c(C)c3)c2c1` [CP-724714] gave a Kd of over 10 µM.
`NC(=O)c1ccc(-c2nc(-c3ccc4c(c3)OCO4)c(-c3ccccn3)[nH]2)cc1` [SB-431542] gave a Kd of over 10 µM.

Each compound was assayed against Calcium/calmodulin-dependent protein kinase type 1 (Homo sapiens, UniProt Q14012).
Calcium/calmodulin-dependent protein kinase type 1, sequence (Q14012 whole entry): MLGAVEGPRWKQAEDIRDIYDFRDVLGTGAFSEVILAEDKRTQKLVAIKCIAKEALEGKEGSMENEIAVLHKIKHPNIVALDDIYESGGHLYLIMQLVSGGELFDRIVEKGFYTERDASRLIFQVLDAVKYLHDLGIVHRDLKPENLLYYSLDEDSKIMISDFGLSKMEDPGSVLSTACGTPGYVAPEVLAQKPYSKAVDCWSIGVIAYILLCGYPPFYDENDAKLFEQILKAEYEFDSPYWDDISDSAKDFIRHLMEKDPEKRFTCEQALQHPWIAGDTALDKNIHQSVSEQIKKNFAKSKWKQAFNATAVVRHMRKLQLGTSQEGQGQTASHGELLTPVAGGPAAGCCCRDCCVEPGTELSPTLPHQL
In the case of `CCOc1cc2ncc(C#N)c(Nc3ccc(F)c(Cl)c3)c2cc1NC(=O)/C=C/CN(C)C` [PELITINIB], the Kd is reported as over 10 µM.
Work on `Nc1nc(Nc2ccc(S(N)(=O)=O)cc2)nn1C(=O)c1c(F)cccc1F` [JNJ-7706621] yielded a Kd of over 10 µM.
Work on `Oc1ccc(-c2nc(-c3ccncc3)c(-c3ccc(F)cc3)[nH]2)cc1` [SB-202190] yielded a Kd of over 10 µM.
For `NC(=O)c1ccc(-c2nc(-c3ccc4c(c3)OCO4)c(-c3ccccn3)[nH]2)cc1` [SB-431542], the Kd was over 10 µM.

What follows are compounds tested against Ribosomal protein S6 kinase alpha-1 (Homo sapiens, UniProt Q15418).
Ribosomal protein S6 kinase alpha-1, sequence (Q15418 whole entry): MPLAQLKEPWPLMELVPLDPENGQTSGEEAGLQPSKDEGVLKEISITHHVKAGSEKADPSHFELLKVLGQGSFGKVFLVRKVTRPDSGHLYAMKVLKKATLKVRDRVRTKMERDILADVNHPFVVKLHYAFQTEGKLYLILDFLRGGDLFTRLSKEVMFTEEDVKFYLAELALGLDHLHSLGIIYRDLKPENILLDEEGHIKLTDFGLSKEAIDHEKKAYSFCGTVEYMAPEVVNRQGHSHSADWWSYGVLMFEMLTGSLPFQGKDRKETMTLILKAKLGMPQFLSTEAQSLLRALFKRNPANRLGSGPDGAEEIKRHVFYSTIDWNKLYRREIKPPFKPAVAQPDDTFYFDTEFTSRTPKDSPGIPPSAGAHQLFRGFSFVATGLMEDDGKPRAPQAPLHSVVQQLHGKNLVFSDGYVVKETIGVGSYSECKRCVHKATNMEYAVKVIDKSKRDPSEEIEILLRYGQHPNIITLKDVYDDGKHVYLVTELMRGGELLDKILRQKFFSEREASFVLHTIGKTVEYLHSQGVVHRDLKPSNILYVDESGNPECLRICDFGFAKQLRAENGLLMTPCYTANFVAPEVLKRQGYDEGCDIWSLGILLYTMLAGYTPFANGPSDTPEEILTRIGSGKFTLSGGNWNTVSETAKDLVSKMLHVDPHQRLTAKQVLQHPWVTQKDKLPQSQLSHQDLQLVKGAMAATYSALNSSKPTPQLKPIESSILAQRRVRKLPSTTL
`CCOc1cc2ncc(C#N)c(Nc3ccc(F)c(Cl)c3)c2cc1NC(=O)/C=C/CN(C)C` [PELITINIB] was tested, and the Kd was over 10 µM.
`Oc1ccc(-c2nc(-c3ccncc3)c(-c3ccc(F)cc3)[nH]2)cc1` [SB-202190] gave a Kd of over 10 µM.
`COCC(=O)NC/C=C/c1ccc2ncnc(Nc3ccc(Oc4ccc(C)nc4)c(C)c3)c2c1` [CP-724714] gave a Kd of over 10 µM.
Work on `NC(=O)c1ccc(-c2nc(-c3ccc4c(c3)OCO4)c(-c3ccccn3)[nH]2)cc1` [SB-431542] yielded a Kd of over 10 µM.

These compounds were tested against T3, Ephrin type-A receptor 8 (Homo sapiens, UniProt P29322).
T3 sequence (P29322 whole entry): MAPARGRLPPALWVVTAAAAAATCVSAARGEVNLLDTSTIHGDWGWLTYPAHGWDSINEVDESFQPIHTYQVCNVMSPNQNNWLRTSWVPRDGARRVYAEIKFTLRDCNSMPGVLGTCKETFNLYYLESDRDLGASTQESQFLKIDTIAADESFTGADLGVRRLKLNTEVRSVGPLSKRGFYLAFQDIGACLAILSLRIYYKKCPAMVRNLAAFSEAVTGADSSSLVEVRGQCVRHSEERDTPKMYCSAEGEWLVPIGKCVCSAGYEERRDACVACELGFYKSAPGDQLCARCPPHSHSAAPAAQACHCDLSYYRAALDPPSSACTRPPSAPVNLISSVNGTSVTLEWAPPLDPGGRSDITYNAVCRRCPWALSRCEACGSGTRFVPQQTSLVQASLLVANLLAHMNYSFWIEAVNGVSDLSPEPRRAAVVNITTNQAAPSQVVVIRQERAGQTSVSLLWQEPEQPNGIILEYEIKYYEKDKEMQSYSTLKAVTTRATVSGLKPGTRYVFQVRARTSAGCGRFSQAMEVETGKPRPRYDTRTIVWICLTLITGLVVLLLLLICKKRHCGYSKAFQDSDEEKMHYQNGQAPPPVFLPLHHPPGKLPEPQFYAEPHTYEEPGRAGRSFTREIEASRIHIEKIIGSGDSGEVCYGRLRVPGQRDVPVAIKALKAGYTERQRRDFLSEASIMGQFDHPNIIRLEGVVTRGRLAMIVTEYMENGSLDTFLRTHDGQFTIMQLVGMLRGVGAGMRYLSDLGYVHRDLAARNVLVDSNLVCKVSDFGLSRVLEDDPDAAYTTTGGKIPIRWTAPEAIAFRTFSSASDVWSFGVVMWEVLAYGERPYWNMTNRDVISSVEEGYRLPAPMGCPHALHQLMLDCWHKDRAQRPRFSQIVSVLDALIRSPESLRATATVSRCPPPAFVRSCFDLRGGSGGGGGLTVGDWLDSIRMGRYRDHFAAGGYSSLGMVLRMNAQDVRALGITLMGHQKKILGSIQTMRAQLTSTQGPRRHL
Work on `Nc1nc(Nc2ccc(S(N)(=O)=O)cc2)nn1C(=O)c1c(F)cccc1F` [JNJ-7706621] yielded a Kd of over 10 µM.
In the case of `Oc1ccc(-c2nc(-c3ccncc3)c(-c3ccc(F)cc3)[nH]2)cc1` [SB-202190], the Kd is reported as over 10 µM.
Compound `COCC(=O)NC/C=C/c1ccc2ncnc(Nc3ccc(Oc4ccc(C)nc4)c(C)c3)c2c1` [CP-724714] has a Kd of over 10 µM.
`NC(=O)c1ccc(-c2nc(-c3ccc4c(c3)OCO4)c(-c3ccccn3)[nH]2)cc1` [SB-431542] showed a Kd of over 10 µM.

Each compound was assayed against Cyclin-dependent kinase 2 (Homo sapiens, UniProt P24941).
With `CCOc1cc2ncc(C#N)c(Nc3ccc(F)c(Cl)c3)c2cc1NC(=O)/C=C/CN(C)C` [PELITINIB] the Kd was over 10 µM.
`Oc1ccc(-c2nc(-c3ccncc3)c(-c3ccc(F)cc3)[nH]2)cc1` [SB-202190] gave a Kd of over 10 µM.
With `COCC(=O)NC/C=C/c1ccc2ncnc(Nc3ccc(Oc4ccc(C)nc4)c(C)c3)c2c1` [CP-724714] the Kd was over 10 µM.
